# Reference: EP0318029B1, “Cyclic amine and pharmacological composition” (Eisai Co., Ltd., priority 1987, dated 1989)
# Tested on: cerebral cortex slice
# Assay: Glutamate liberation inhibitory activity in cerebral cortex slice
# Type: cell-based, SD rat
# Conditions: 10⁻⁴ M test compound; rat cerebral cortex slice, 30 min pre-incubation, then 50 mM KCl for 60 min; glutamate determined by HPLC, relative to solvent control
# Procedure: Glutamate liberation inhibitory activity in cerebral cortex slice
# A male SD rat was decapitated, and cerebral cortices on both sides were then extirpated to prepare a slice having a thickness of 750 µm (weight: 10 to 20 mg) with a McIlwain tissue chopper. The slice was incubated in a Krebs-Henseleit liquid containing a test compound in the form of a solution thereof for 30 minutes. Then the slice was incubated in one ml of a Krebs-Henseleit liquid containing 50 mM of KCl and the test compound solution for 60 mins. For control, a solvent was added to a Krebs-Henseleit liquid containing only 50 mM of KCl.
# The glutamate liberated in the solution was determined by HPLC, and the glutamate liberation inhibitory activity (%) in 10⁻⁴ M of each test compound solution was calculated by the following equation: (1 -(glutamate in each test compound solution)/(amount of glutamate in control group)) x 100 [formula]
compound,measurement,value
O=C(CN1CCC(Oc2ccc(F)cc2)CC1)c1ccc2ccccc2c1 [compd. of Ex. 3],glutamate liberation inhibitory activity (%) 1 x 10⁻⁴ M,49%
